{"source": "paper PMC7139549", "about": "“TLD1433 Photosensitizer Inhibits Conjunctival Melanoma Cells in Zebrafish Ectopic and Orthotopic Tumour Models” (Cancers, 2020)", "test_system": "CRMM2 cells injected into the Duct of Cuvier of zebrafish embryos", "assay": "Zebrafish ectopic CM tumour model, CRMM2", "assay_type": "in vivo, Zebrafish (Danio rerio)", "details": "for PI (Fluorescence Intensity) / PI (Tumour Area) / Relative Tumour Burden as Measured by Fluorescence Intensity / Tumour Area: CRMM2, Ectopic Model; for PI (Fluorescence Intensity) / PI (Tumour Area): 0 vs 114 J.cm^−2", "experimental": "The zebrafish ectopic conjunctival melanoma tumour model has been described previously. In this model, around 200 fluorescent CM cells are injected into the Duct of Cuvier at 2 dpf, and then disseminate through the blood circulation and grow in the head and tail. To establish the orthotopic tumour model, around 100 red, (td)Tomato fluorescent CRMM1 or CRMM2 cells were injected RO at 2 dpf into tg(Fli:GFP/Casper), endothelial reporter transgenic zebrafish with green fluorescent vasculature and examined by fluorescent microscopy at day 1 and 4 after engraftment (Figure 6A). Tumour expansion at the injection site was measured as fluorescence intensity and tumour area.\nFor cancer cell injection, two days post-fertilization (dpf), dechorionated zebrafish embryos were anaesthetized with 0.003% tricaine (Sigma) and plated on a 10 cm Petri dish covered with 1.5% of solidified agarose. CRMM1 and CRMM2 cells were suspended in PBS containing 2% polyvinylpyrrolidone (PVP; Sigma-Aldrich) with a concentration of 50,000 cells/µL and loaded into borosilicate glass capillary needles (1 mm O.D. × 0.78 mm I.D.; Harvard Apparatus). In the ectopic model, 200 (td)Tomato fluorescent CM cells were injected into the Duct of Cuvier or at 2 dpf, which led to dissemination through the blood circulation and outgrowth in the head and tail. In orthotopic tumour model, 100 (td)Tomato fluorescent CRMM1 or CRMM2 cells were injected RO in 2 dpf embryos using a Pneumatic Picopump and a manipulator (WPI). After injection, the embryos were incubated in a 34 °C incubator. Images were acquired at 1-, 2- and 4-days post injection (dpi) with a Leica M165 FC stereo fluorescence microscope. Tumor growth was quantified by calculating the total fluorescence intensity and area with the ZF4 pixel counting program (Leiden). Each experiment was performed at least 3 times with a group size of >30 embryos.\nFluorescent CRMM1 and CRMM2 cells were injected at 2 dpf into the Duct of Cuvier (ectopic model) and behind the eye (orthotopic model) and TLD1433 was delivered by WA, IV and RO administration with or without a light treatment as described in 4.8. For the WA administration, the 4.6 nM TLD1433 solution was added to the tumour cells injected zebrafish at 2.5, 3.5, 4.5, 5.5 dpf and maintained for 12 h. At 3, 4, 5, 6 dpf, the fish water was refreshed, and after 1 h, embryos were exposed to green light for 90 min (21 mW/cm^2, 114 J/cm^2, 520 nm). For the IV and RO administration, 1 nL of 2.3 mM TLD1433 solution was injected via the dorsal vein or the RO site at 3, 4, 5, 6 dpf. After 1 h interval, the embryos were exposed to green light for 90 min (21 mW/cm^2, 114 J/cm^2, 520 nm). After treatment, the embryos images were acquired with a Leica M165 FC stereo fluorescence microscope. Tumor growth was quantified by calculating the total fluorescence intensity and area with the ZF4 pixel counting program (Leiden). Each experiment was performed at least 3 times with a group size of >30 embryos.", "key": {"[1]": {"details": "Intravenous (1 nL of 2.3 mM), Light Dose 0 J.cm^−2, vs control dark group (100%)"}, "[2]": {"details": "Intravenous (1 nL of 2.3 mM), Light Dose 114 J.cm^−2, vs control dark group (100%)"}, "[3]": {"details": "Water (4.6 nM), Light dose 0 J.cm^−2, vs control dark group (100%)"}, "[4]": {"details": "Water (4.6 nM), Light dose 114 J.cm^−2, vs control dark group (100%)"}, "[5]": {"details": "CRMM2, ectopic model, IV 2.3 mM, light 114 J.cm^−2"}, "[6]": {"details": "CRMM2, ectopic model, RO 2.3 mM, green light 114 J.cm^−2"}}}
{"smiles": "Cc1ccnc(-c2cc(C)ccn2)c1.Cc1ccnc(-c2cc(C)ccn2)c1.[Cl-].[Cl-].[Ru+2].c1csc(-c2ccc(-c3ccc(-c4nc5c6cccnc6c6ncccc6c5[nH]4)s3)s2)c1", "note": "[TLD1433]", "values": [{"measurement": "PI (Fluorescence Intensity)", "setting": "Intravenous (1 nL of 2.3 mM)", "result": 1.4}, {"measurement": "PI (Tumour Area)", "setting": "Intravenous (1 nL of 2.3 mM)", "result": 2.0}, {"measurement": "Relative Tumour Burden as Measured by Fluorescence Intensity", "setting": "[1]", "result": 97, "unit": "%"}, {"measurement": "Tumour Area", "setting": "[1]", "result": 99, "unit": "%"}, {"measurement": "Relative Tumour Burden as Measured by Fluorescence Intensity", "setting": "[2]", "result": 69, "unit": "%"}, {"measurement": "Tumour Area", "setting": "[2]", "result": 50, "unit": "%"}, {"measurement": "PI (Tumour Area)", "setting": "Retro orbital (1 nL of 2.3 mM)", "result": 2.0}, {"measurement": "Tumour Area", "setting": "Retro orbital (1 nL of 2.3 mM), Light dose 0 J.cm^−2, vs control dark group (100%)", "result": 94, "unit": "%"}, {"measurement": "Tumour Area", "setting": "Retro orbital (1 nL of 2.3 mM), Light dose 114 J.cm^−2, vs control dark group (100%)", "result": 48, "unit": "%"}, {"measurement": "PI (Fluorescence Intensity)", "setting": "Retro-orbital (1 nL of 2.3 mM)", "result": 1.6}, {"measurement": "Relative Tumour Burden as Measured by Fluorescence Intensity", "setting": "Retro-orbital (1 nL of 2.3 mM), Light Dose 0 J.cm^−2, vs control dark group (100%)", "result": 93, "unit": "%"}, {"measurement": "Relative Tumour Burden as Measured by Fluorescence Intensity", "setting": "Retro-orbital (1 nL of 2.3 mM), Light Dose 114 J.cm^−2, vs control dark group (100%)", "result": 60, "unit": "%"}, {"measurement": "PI (Fluorescence Intensity)", "setting": "Water (4.6 nM)", "result": 0.93}, {"measurement": "PI (Tumour Area)", "setting": "Water (4.6 nM)", "result": 0.90}, {"measurement": "Relative Tumour Burden as Measured by Fluorescence Intensity", "setting": "[3]", "result": 90, "unit": "%"}, {"measurement": "Tumour Area", "setting": "[3]", "result": 92, "unit": "%"}, {"measurement": "Relative Tumour Burden as Measured by Fluorescence Intensity", "setting": "[4]", "result": 96, "unit": "%"}, {"measurement": "Tumour Area", "setting": "[4]", "result": 102, "unit": "%"}, {"measurement": "inhibition of tumour area", "setting": "[5]", "result": 50, "unit": "%"}, {"measurement": "inhibition of tumour fluorescence intensity", "setting": "[5]", "result": 31, "unit": "%"}, {"measurement": "diminished fluorescence intensity", "setting": "[6]", "result": 40, "unit": "%"}, {"measurement": "diminished tumour area", "setting": "[6]", "result": 52, "unit": "%"}, {"measurement": "effect on tumour burden (in words)", "setting": "CRMM2, ectopic model, WA at the MTD (4.6 nM), light 114 J.cm^−2", "result": "did not inhibit tumour burden"}]}
